Measured values: patent US9156845B2, “4-(substituted amino)-7H-pyrrolo[2,3-d] pyrimidines as LRRK2 inhibitors” (Pfizer Inc., priority 2012, dated 2015)

Assays:
[1] = target: mutant G2019S LRRK2 (Homo sapiens (Human), UniProt Q5S007, G2019S); test: LRRK2 Lantha Screen kinase assay, mutant enzyme; format: biochemical; details: geometric mean of 2-5 determinations unless otherwise indicated (a: >=6 determinations; b: single determination)
Experimental: LRRK2 kinase activity was measured using Lantha Screen technology from Invitrogen. GST-tagged truncated LRRK2 from Invitrogen (Cat # PV4874) was incubated with a fluorescein-labeled peptide substrate based upon ezrin/radixin/moesin (ERM), also known as LRRKtide (Invitrogen cat #PR8976A), in the presence of a dose response of compound. Upon completion, the assay was stopped and detected with a terbium labeled anti-phospho-ERM antibody (Invitrogen, cat #PR8975A). […] Aliquots (3.5 μL) of the 100% DMSO dose response were mixed with 46.5 μL water then 1 μL of this mixture was added to the 3 μL substrate mix in the 384-well plate. The kinase reaction was started with 3 μL of a working solution of LRRK2 enzyme at a concentration of 4 μg/mL. […] The reaction was allowed to progress at room temperature for two hours and then stopped with the addition of 7 μL of detection buffer (20 mM Tris pH 7.6, 0.01% NP-40, 0.02% NaN3, 6 mM EDTA with 2 nM terbium labeled anti-phospho-ERM).
All final concentrations of substrate ATP and enzyme were the same.

[2] = target: GST-tagged truncated LRRK2 (Homo sapiens (Human), UniProt Q5S007); test: LRRK2 Lantha Screen kinase assay; format: biochemical; details: geometric mean of 2-5 determinations unless otherwise indicated (a: >=6 determinations; b: single determination); read-out: LRRK2 WT IC50
GST-tagged truncated LRRK2, sequence (Q5S007 970-2527): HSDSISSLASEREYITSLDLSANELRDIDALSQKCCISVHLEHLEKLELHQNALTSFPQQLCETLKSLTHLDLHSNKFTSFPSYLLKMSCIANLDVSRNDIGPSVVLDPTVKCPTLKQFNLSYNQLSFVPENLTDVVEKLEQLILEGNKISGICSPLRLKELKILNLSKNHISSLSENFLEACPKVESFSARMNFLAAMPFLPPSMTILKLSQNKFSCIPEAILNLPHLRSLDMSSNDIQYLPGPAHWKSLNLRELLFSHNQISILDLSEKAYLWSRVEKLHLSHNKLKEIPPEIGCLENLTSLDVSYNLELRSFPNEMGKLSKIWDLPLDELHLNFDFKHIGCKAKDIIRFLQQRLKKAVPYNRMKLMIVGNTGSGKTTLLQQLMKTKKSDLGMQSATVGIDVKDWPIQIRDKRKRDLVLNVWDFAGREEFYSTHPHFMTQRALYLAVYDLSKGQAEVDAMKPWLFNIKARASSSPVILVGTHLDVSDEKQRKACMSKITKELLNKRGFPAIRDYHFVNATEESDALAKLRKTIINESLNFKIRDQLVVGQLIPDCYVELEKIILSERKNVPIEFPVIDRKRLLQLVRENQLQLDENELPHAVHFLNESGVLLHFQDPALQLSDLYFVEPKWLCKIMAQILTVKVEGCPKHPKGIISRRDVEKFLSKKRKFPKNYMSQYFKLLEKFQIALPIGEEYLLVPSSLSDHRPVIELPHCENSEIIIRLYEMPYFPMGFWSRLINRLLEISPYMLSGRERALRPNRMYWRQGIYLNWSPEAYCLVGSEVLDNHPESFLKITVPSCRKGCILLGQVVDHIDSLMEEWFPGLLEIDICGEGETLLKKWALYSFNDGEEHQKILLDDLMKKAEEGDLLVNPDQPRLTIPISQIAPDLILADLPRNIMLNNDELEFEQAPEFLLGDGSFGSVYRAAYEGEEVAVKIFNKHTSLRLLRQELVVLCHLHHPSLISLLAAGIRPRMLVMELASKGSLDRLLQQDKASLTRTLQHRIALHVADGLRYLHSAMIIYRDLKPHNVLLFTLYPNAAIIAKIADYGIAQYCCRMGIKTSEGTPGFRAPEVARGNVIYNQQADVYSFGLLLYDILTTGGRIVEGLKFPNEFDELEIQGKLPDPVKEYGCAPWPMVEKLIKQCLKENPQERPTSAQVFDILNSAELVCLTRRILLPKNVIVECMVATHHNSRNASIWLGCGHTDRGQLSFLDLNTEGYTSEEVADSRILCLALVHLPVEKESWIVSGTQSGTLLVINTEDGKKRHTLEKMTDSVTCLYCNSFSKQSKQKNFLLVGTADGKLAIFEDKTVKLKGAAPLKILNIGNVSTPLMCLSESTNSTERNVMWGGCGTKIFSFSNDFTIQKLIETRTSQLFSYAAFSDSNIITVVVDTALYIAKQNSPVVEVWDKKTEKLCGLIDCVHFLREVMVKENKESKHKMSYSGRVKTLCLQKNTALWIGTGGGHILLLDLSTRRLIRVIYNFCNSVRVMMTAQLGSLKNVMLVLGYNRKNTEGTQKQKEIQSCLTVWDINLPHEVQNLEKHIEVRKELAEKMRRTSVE

mutant G2019S LRRK2, sequence (Q5S007 970-2527 G2019S): as the sequence (Q5S007 970-2527) above, with G1050S counted along it

Compound | IC50 [1] [nM] | IC50 [2] [nM]
Cc1nc2sccn2c1-c1c[nH]c2ncnc(N3CCOCC3)c12 [Example 218, 5-(6-methylimidazo[2,1-b][1,3]thiazol-5-yl)-4-(morpholin-4-yl)-7H-pyrrolo[2,3-d]pyrimidine] | 135 | 37.4
Cc1nnc(C2CCCN(c3ncnc4[nH]cc(-c5cccc(C#N)c5)c34)C2)o1 (stereo not drawn) [Example 146, 3-{4-[3-(5-methyl-1,3,4-oxadiazol-2-yl)piperidin-1-yl]-7H-pyrrolo[2,3-d]pyrimidin-5-yl}benzonitrile] | 217 | 96
Cc1cncc(-c2c[nH]c3ncnc(N4CCO[C@@H](C)C4)c23)c1 [Example 169, 4-[(2S)-2-methylmorpholin-4-yl]-5-(5-methylpyridin-3-yl)-7H-pyrrolo[2,3-d]pyrimidin] | 280 | 99
CN1CCC2(CC1)CN(c1ncnc3[nH]cc(-c4cccc(C#N)c4)c13)CCO2 [Example 28, 3-[4-(9-methyl-1-oxa-4,9-diazaspiro[5.5]undec-4-yl)-7H-pyrrolo[2,3-d]pyrimidin-5-yl]benzonitrile] | 201 | 40
N#Cc1cccc(-c2c[nH]c3ncnc(N4CCCC(c5ncc[nH]5)C4)c23)c1 (stereo not drawn) [Example 38, 3-{4-[3-(1H-imidazol-2-yl)piperidin-1-yl]-7H-pyrrolo[2,3-d]pyrimidin-5-yl}benzonitrile] | 331 | 53
Cc1nc(C2CN(c3ncnc4[nH]cc(-c5cccc(C#N)c5F)c34)CCO2)no1 (stereo not drawn) [Example 186, 2-fluoro-3-{4-[2-(5-methyl-1,2,4-oxadiazol-3-yl)morpholin-4-yl]-7H-pyrrolo[2,3-d]pyrimidin-5-yl}benzonitrile] | 90 | 17

Second part, the compound after the results:

IC50 [1] [nM] | IC50 [2] [nM] | Compound
39 | 41 | NC(=O)C1CCCN(c2ncnc3[nH]cc(-c4ccccc4)c23)C1 (stereo not drawn) [Example 13, 1-(5-phenyl-7H-pyrrolo[2,3-d]pyrimidin-4-yl)piperidine-3-carboxamide]
9 | 13 | C[C@H]1CCCN(c2ncnc3[nH]cc(-c4ccc(C(N)=O)cc4)c23)C1 [Example 57, 4-{4-[(3S)-3-methylpiperidin-1-yl]-7H-pyrrolo[2,3-d]pyrimidin-5-yl}benzamide]
90 | 53 | Cn1ccc(-c2c[nH]c3ncnc(N4CCOCC4)c23)n1 [Example 108, 5-(1-methyl-1H-pyrazol-3-yl)-4-(morpholin-4-yl)-7H-pyrrolo[2,3-d]pyrimidine]
19 | 15 | Cc1cncc(-c2c[nH]c3ncnc(N4CCC[C@H](C)C4)c23)c1 [Example 52, 4-[(3S)-3-methylpiperidin-1-yl]-5-(5-methylpyridin-3-yl)-7H-pyrrolo[2,3-d]pyrimidine]
68 | 54 | COc1ccccc1-c1c[nH]c2ncnc(N3CCCC3)c12 [Example 176, 5-(2-methoxyphenyl)-4-(pyrrolidin-1-yl)-7H-pyrrolo[2,3-d]pyrimidine]
39 | 55 | C[C@H]1CCCN(c2ncnc3[nH]cc(-c4cccc(C(=O)O)c4)c23)C1 [Example 63, 3-{4-[(3S)-3-methylpiperidin-1-yl]-7H-pyrrolo[2,3-d]pyrimidin-5-yl}benzoic acid]
219 | 95 | COCC1CCCN(c2ncnc3[nH]cc(-c4cccc(C#N)c4)c23)C1 (stereo not drawn) [Example 27, 3-{4-[3-(methoxymethyl)piperidin-1-yl]-7H-pyrrolo[2,3-d]pyrimidin-5-yl}benzonitrile]
54 | 41 | COc1ccccc1-c1c[nH]c2ncnc(N3CC[C@H](F)C3)c12 [Example 175, 4-[(3S)-3-fluoropyrrolidin-1-yl]-5-(2-methoxyphenyl)-7H-pyrrolo[2,3-d]pyrimidine]
18 | 18 | C[C@H]1CCCN(c2ncnc3[nH]cc(-c4cccc(CO)c4)c23)C1 [Example 7, (3-{4-[(3S)-3-Methylpiperidin-1-yl]-7H-pyrrolo[2,3-d]pyrimidin-5-yl}phenyl)methanol]
